Source: patent US10538497B2, “Compounds as indoleamine 2,3-dioxygenase inhibitors” (Merck Sharp & Dohme Corp., priority 2015, dated 2020)

How the values were obtained:
[1] = target: T1, IDO1 (Homo sapiens (Human), UniProt P14902); test: IDO1 Cellular Assay in Hela Cells Stimulated with IFNγ; type: cell-based; settings: Hela cells stimulated with IFNγ 100 ng/mL; read-out: IDO1 HELA Cell Assay, IC50
Description: IDO1 Cellular Assay in Hela Cells Stimulated with IFNγ
Hela cells were cultured in complete Hela culture medium (90% EMEM, 10% heat-inactivated fetal bovine serum) and expanded to about 1×10^9 cells. The cells were then collected and frozen down at 10×10^6 cells/vial in 1 mL frozen medium (90% complete Hela culture medium, 10% DMSO)
Frozen Hela cells were thawed and transferred into Hela assay medium (99% complete Hela culture medium, 1% Pen/Strep) with 20 mL medium/vial of cells. The cells were spun down at 250 g in a table top centrifuge for 5 min and suspended in same volume of Hela assay medium. The cells were then counted and adjusted to a density of 2×10^5 cells/ml in Hela assay medium. Sterile L-tryptophan were added to the cells with final concentration of 300 uM L-tryptophan. A small aliquot (2 mL/plate) of Hela cells were set aside and were not treated with IFNγ, to serve as the Max-E control. The rest of Hela cells were added with sterile IFNγ (Cat #285-IF, R & D systems) with a final concentration of 100 ng/mL.
Hela cells with and without IFNγ were dispensed to the respective wells of 384-well assay plates containing the compounds. The plates were incubated for about 48 hours at a 37° C., 5% CO2 incubator. […] The plates were centrifuged for 1 min at 200×g. The resulting fluorescence was measured in a Spectramax plate reader (Molecular Devices) with a 400 nm excitation filter and a 510 nm emission filter.

[2] = target: T1, IDO1; test: IDO1 Enzyme Assay; settings: HIS-tagged recombinant IDO1, 40 nM
[3] = read-out: IDO1 Enzyme Assay, IC50

T1 sequence (P14902 whole entry): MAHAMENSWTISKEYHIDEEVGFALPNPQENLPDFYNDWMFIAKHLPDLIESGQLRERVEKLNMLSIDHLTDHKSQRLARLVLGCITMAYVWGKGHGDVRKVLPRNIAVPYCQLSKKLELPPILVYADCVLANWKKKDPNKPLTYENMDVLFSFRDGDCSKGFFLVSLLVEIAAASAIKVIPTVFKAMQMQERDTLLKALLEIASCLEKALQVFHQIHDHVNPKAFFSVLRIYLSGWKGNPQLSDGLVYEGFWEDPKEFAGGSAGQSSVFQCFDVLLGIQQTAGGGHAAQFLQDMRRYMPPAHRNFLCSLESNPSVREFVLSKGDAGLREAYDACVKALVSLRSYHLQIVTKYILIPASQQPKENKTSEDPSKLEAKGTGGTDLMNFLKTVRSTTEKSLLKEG

IC50 [1] [nM]	IC50 [2, 3] [nM]	IC50 ([2]; IDO1 Enzyme Assay, IC50, nM) [nM]	SMILES
37.5	26.6	–	CC(C)(NC(=O)CSc1nonc1/C(=N/O)Nc1ccc(F)c(Br)c1)C(O)CO (stereo not drawn) [Example 208, 2-((4-(N-(3-bromo-4-fluorophenyl)-N′-hydroxycarbamimidoyl)-1,2,5-oxadiazol-3-yl)thio)-N-(3,4-dihydroxy-2-methylbutan-2-yl)acetamide]
144	82.6	–	CC(C)(Sc1nonc1/C(=N/O)Nc1ccc(F)c(Br)c1)C(=O)NC[C@@H](O)CO [Example 204, (R)-2-((4-(N-(3-bromo-4-fluorophenyl)-N′-hydroxycarbamimidoyl)-1,2,5-oxadiazol-3-yl)thio)-N-(2,3-dihydroxypropyl)-2-methylpropanamide]
44.4	205	–	CS(=O)(=O)NCCOc1nonc1/C(=N/O)Nc1ccc(F)c(Br)c1 [Example 214, N-(3-bromo-4-fluorophenyl)-N′-hydroxy-4-(2-(methylsulfonamido)ethoxy)-1,2,5-oxadiazole-3-carboximidamide]
11.6	14.5	–	C[C@H](O)CNC(=O)CSc1nonc1/C(=N/O)Nc1ccc(F)c(Br)c1 [Example 203, (S)-2-((4-(N-(3-bromo-4-fluorophenyl)-N′-hydroxycarbamimidoyl)-1,2,5-oxadiazol-3-yl)thio)-N-(2-hydroxypropyl)acetamide]
149	56	–	O=C(CSc1nonc1/C(=N/O)Nc1ccc(F)c(Br)c1)N[C@H]1CCOC[C@H]1O [Example 198, 2-((4-(N-(3-bromo-4-fluorophenyl)-N′-hydroxycarbamimidoyl)-1,2,5-oxadiazol-3-yl)thio)-N-((3S,4S)-3-hydroxytetrahydro-2H-pyran-4-yl)acetamide]
14.9	29.9	–	C[C@H](O)CNC(=O)CSc1nonc1/C(=N/O)Nc1ccc(F)c(Br)c1 [Example 200, (S)-2-((4-(N-(3-bromo-4-fluorophenyl)-N′-hydroxycarbamimidoyl)-1,2,5-oxadiazol-3-yl)thio)-N-(2-hydroxypropyl)acetamide]
111	52	–	NS(=O)(=O)NCCOc1nonc1/C(=N/O)Nc1ccc(F)c(Br)c1 [Example 212, N-(3-bromo-4-fluorophenyl)-N′-hydroxy-4-(2-(sulfamoylamino)ethoxy)-1,2,5-oxadiazole-3-carboximidamide]
12.2	20.2	–	O=C(CSc1nonc1/C(=N/O)Nc1ccc(F)c(Br)c1)NC1(CO)CC1 [Example 202, 2-((4-(N-(3-bromo-4-fluorophenyl)-N′-hydroxycarbamimidoyl)-1,2,5-oxadiazol-3-yl)thio)-N-(1-(hydroxymethyl)cyclopropyl) acetamide]
607	130	–	NCCOc1nonc1/C(=N/O)Nc1ccc(F)c(Br)c1 [Example 213, 4-(2-aminoethoxy)-N-(3-bromo-4-fluorophenyl)-N′-hydroxy-1,2,5-oxadiazole-3-carboximidamide]
140	–	43.1	O=C(CSc1nonc1/C(=N/O)Nc1ccc(F)c(Br)c1)NCC(O)CN1CCOCC1 (single isomer, unassigned) [Example 207, 2-((4-(N-(3-bromo-4-fluorophenyl)-N′-hydroxycarbamimidoyl)-1,2,5-oxadiazol-3-yl)thio)-N-(2-hydroxy-3-morpholinopropyl)acetamide]
11.7	12.4	–	C[C@@H](CO)NC(=O)CSc1nonc1/C(=N/O)Nc1ccc(F)c(Br)c1 [Example 205, (S)-2-((4-(N-(3-bromo-4-fluorophenyl)-N′-hydroxycarbamimidoyl)-1,2,5-oxadiazol-3-yl)thio)-N-(1-hydroxypropan-2-yl)acetamide]

The remaining lines, values behind:

SMILES	IC50 [1] [nM]	IC50 [2, 3] [nM]	IC50 ([2]; IDO1 Enzyme Assay, IC50, nM) [nM]
CC(C)(O)[C@@H](O)CSc1nonc1C(=NO)Nc1ccc(F)c(C#N)c1 [Example 38, (R)—N-(3-cyano-4-fluorophenyl)-4-((2,3-dihydroxy-3-methylbutyl)thio)-N′-hydroxy-1,2,5-oxadiazole-3-carboximidamide]	118	144	–
O=c1cc(C(F)(F)F)cc(CSc2nonc2/C(=N/O)Nc2ccc(F)c(Br)c2)[nH]1 [Example 88, N-(3-bromo-4-fluorophenyl)-N′-hydroxy-4-({[6-oxo-4-(trifluoromethyl)-1,6-dihydropyridin-2-yl]methyl}sulfanyl)-1,2,5-oxadiazole-3-carboximidamide]	174	173	–
O=C(CSc1nonc1C(=NO)Nc1ccc(F)c(Br)c1)N1CCC[C@H]1CO [Example 134, N-(3-bromo-4-fluorophenyl)-N′-hydroxy-4-({2-[(2S)-2-(hydroxymethyl)pyrrolidin-1-yl]-2-oxoethyl}sulfanyl)-1,2,5-oxadiazole-3-carboximidamide]	–	–	120
O=c1c(NCCO)c(NCCSc2nonc2/C(=N/O)Nc2ccc(F)c(Br)c2)c1=O [Example 90, N-(3-bromo-4-fluorophenyl)-N′-hydroxy-4-{[2-({2-[(2-hydroxyethyl)amino]-3,4-dioxocyclobut-1-en-1-yl}amino)ethyl]sulfanyl}-1,2,5-oxadiazole-3-carboximidamide]	–	29.3	–
O=S1(=O)NC[C@H](CSc2nonc2/C(=N/O)Nc2ccc(F)c(Cl)c2)N1 [Example 32, (R)—N-(3-chloro-4-fluorophenyl)-4-(((1,1-dioxido-1,2,5-thiadiazolidin-3-yl)methyl)thio)-N′-hydroxy-1,2,5-oxadiazole-3-carboximidamide]	13.1	32	–
CC(C)(CO)NC(=O)CSc1nonc1/C(=N/O)Nc1ccc(F)c(Br)c1 [Example 27, 2-((4-(N-(3-bromo-4-fluorophenyl)-N′-hydroxycarbamimidoyl)-1,2,5-oxadiazol-3-yl)thio)-N-(1-hydroxy-2-methylpropan-2-yl)acetamide]	17.6	29.8	–
O=C(CSc1nonc1/C(=N/O)Nc1ccc(F)c(Br)c1)N1CCOCC1 [Example 193, N-(3-bromo-4-fluorophenyl)-N′-hydroxy-4-[(2-morpholin-4-yl-2-oxoethyl)sulfanyl]-1,2,5-oxadiazole-3-carboximidamide]	143	73.8	–
O=C(COc1nonc1/C(=N/O)Nc1ccc(F)c(Br)c1)NCCO [Example 6, 2-((4-(N-(3-Bromo-4-fluorophenyl)-N′-hydroxycarbamimidoyl)-1,2,5-oxadiazol-3-yl)oxy)-N-(2-hydroxyethyl)acetamide]	144	44	–
NS(=O)(=O)N[C@H](CO)CSc1nonc1/C(=N/O)Nc1ccc(F)c(Br)c1 [Example 194, N-(3-bromo-4-fluorophenyl)-N′-hydroxy-4-{[(2R)-3-hydroxy-2-(sulfamoylamino)propyl]sulfanyl}-1,2,5-oxadiazole-3-carboximidamide]	47.1	51	–
O=C(CSc1nonc1/C(=N/O)Nc1ccc(F)c(Br)c1)N1C[C@@H](O)[C@@H](O)C1 [Example 195, N-(3-bromo-4-fluorophenyl)-4-((2-((3S,4R)-3,4-dihydroxypyrrolidin-1-yl)-2-oxoethyl)thio)-N′-hydroxy-1,2,5-oxadiazole-3-carboximidamide]	342	92.5	–
CC(C)(O)[C@H](O)CSc1nonc1C(=NO)Nc1ccc(F)c(C#N)c1 [Example 39, (S)—N-(3-cyano-4-fluorophenyl)-4-((2,3-dihydroxy-3-methylbutyl)thio)-N′-hydroxy-1,2,5-oxadiazole-3-carboximidamide]	87.6	118	–
O=C(CSc1nonc1C(=NO)Nc1ccc(F)c(Br)c1)N1CCC[C@@H]1CO [Example 135, N-(3-bromo-4-fluorophenyl)-N′-hydroxy-4-({2-[(2R)-2-(hydroxymethyl)pyrrolidin-1-yl]-2-oxoethyl}sulfanyl)-1,2,5-oxadiazole-3-carboximidamide]	–	–	106
O=C(CSc1nonc1C(=NO)Nc1ccc(F)c(Br)c1)N1CCCC1 [Example 136, N-(3-bromo-4-fluorophenyl)-N′-hydroxy-4-[(2-oxo-2-pyrrolidin-1-ylethyl)sulfanyl]-1,2,5-oxadiazole-3-carboximidamide]	–	–	112
CC(C)(O)CNC(=O)CSc1nonc1/C(=N/O)Nc1ccc(F)c(Br)c1 [Example 28, 2-((4-(N-(3-bromo-4-fluorophenyl)-N′-hydroxycarbamimidoyl)-1,2,5-oxadiazol-3-yl)thio)-N-(2-hydroxy-2-methylpropyl)acetamide]	65.9	38	–
O=c1c(NCCSc2nonc2/C(=N/O)Nc2ccc(F)c(Br)c2)c(NCC2CC2)c1=O [Example 89, N-(3-bromo-4-fluorophenyl)-4-{[2-({2-[(cyclopropylmethyl)amino]-3,4-dioxocyclobut-1-en-1-yl}amino)ethyl]sulfanyl}-N′-hydroxy-1,2,5-oxadiazole-3-carboximidamide]	–	39	–
O=C(CSc1nonc1C(=NO)Nc1ccc(F)c(Br)c1)NCCF [Example 137, 2-({4-[N-(3-bromo-4-fluorophenyl)-N′-hydroxycarbamimidoyl]-1,2,5-oxadiazol-3-yl}sulfanyl)-N-(2-fluoroethyl)acetamide]	–	–	34.9
